Experiments:
α4β1 integrin = target: T1, α4β1 integrin (Homo sapiens, UniProt P05556+P13612); assay: Jurkat-Endothelial Cell Adhesion Assay (Jurkat EC); format: cell-based; conditions: Jurkat cell adhesion to IL-1 stimulated endothelial cell monolayers
T1 construct: a T-cell line, Jurkat, known to express the α4β1 integrin; host or cells: Jurkat T-cell line
Protocol: The following assay established the activity of the present compounds in inhibiting β1-mediated cell adhesion in a representative in vitro system. This assay measures the adhesive interactions of a T-cell line, Jurkat, known to express the α4β1 integrin, to endothelial monolayers in the presence of test compounds. The test compounds were added in increasing concentrations to T-cells and then the T-cell compound mixture was added to IL-1 stimulated endothelial cell monolayers. The plates were incubated, washed and the percentage of attached cells was quantitated.
Human umbilical vein endothelial cells were purchased from Clonetics (San Diego, CA.) at passage number 2. The cells were grown on 0.5% porcine skin gelatin pre-coated flasks (Sigma, St. Louis MO.) in EGM-UV media (Clonetics, San Diego, CA) supplemented with 10% fetal bovine serum. Cells are refed every 2-3 days reaching confluence by day 4 to 6. […] The endothelial cells are not used following passage 6.
The T-cell line Jurkat was obtained from American Type Tissue Culture Collection (Rockville, MD) and the cells were cultured in RPMI containing 10 % fetal calf serum. The cells were washed twice in Hank's Balanced Salt Solution (HBSS) and resuspended in Dulbecco's Minimal Eagle's Media (DMEM) containing 2.5 mg/ml Human Serum Albumin (HSA). Jurkat cells (1x10^6 cells/ml) were stained with 10 ng/ml BCECF-AM (Molecular Probes, Eugene, OR)) in HBSS without phenol red. The cells were loaded with BCECF for 60 minutes in the dark at 37°C, washed 2 times, and resuspended in DMEM-HSA solution.
Confluent endothelial monolayers, grown in 96-well tissue culture plates, were stimulated for 4 hr. at 37 °C with 0.1 ng/ml (∼50 U/ml) recombinant IL-1 (Amgen, Thousand Oaks, CA). Following this incubation, the monolayers were washed twice with HBSS and 0.1 ml of DMEM-HSA solution was added. Jurkat cells (5 x 10^5 cells) were combined with the appropriate concentration of the test compound and 0.1 ml of the Jurkat cell-compound mixture was added to the endothelial cell monolayers. Generally, 100, 20, 5 and 1.25 µM compound concentrations were tested. […] Following this incubation, the monolayers were washed twice with PBS containing 1 mM calcium chloride and 1 mM magnesium chloride' and the plates were read using a Millipore Cytofluor 2300 (Marlboro, MA.). Fluorescence in each well was measured as Arbitrary Fluorescence Units and percent adhesion in the absence of compound was adjusted to 100% and the % adhesion in the presence of compound was calculated. Monolayers were also fixed in 3% paraformaldehyde and evaluated microscopically to verify the adhesion. This procedure is a modification of a previously published method (Cardarelli et al., J. Biol. Chem. 269:18668-18673 (1994)).

α4β1 = target: T2, α4β1 (Homo sapiens, UniProt P05556+P13612); assay: Jurkat-CS-1 assay; format: cell-based; conditions: Jurkat cell adhesion to immobilized CS-1 derived peptide
T2 construct: 100 µl of Jurkat cells (2.5 x 10^6 cells/ml) in DMEM plus BSA; host or cells: Jurkat T-cell line
T2 sequence (P13612 34-1032): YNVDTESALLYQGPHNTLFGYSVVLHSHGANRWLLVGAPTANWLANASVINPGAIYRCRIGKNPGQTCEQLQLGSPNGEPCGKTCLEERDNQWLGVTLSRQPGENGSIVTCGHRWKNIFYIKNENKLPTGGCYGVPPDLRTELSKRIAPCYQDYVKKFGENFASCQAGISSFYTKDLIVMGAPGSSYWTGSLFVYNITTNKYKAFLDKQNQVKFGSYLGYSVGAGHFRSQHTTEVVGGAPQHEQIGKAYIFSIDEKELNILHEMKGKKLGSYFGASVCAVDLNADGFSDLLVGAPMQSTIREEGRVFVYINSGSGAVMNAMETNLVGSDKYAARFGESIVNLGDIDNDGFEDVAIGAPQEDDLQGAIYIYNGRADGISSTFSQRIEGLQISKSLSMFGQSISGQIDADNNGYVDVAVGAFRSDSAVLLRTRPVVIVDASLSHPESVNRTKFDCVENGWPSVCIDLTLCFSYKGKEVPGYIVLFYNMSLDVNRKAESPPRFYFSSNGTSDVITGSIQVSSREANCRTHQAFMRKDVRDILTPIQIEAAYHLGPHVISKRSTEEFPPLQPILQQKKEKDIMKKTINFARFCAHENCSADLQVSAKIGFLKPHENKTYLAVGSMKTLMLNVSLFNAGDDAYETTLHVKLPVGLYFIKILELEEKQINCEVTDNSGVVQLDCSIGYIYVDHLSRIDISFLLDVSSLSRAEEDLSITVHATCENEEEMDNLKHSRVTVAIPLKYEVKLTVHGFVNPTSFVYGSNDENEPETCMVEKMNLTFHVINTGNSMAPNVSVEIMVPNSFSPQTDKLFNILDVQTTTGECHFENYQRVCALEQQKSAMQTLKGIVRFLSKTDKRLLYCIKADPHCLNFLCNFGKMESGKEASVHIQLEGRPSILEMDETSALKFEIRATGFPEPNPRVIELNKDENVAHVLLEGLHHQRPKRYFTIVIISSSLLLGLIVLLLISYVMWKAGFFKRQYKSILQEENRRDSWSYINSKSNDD
T2 sequence (P05556 21-798): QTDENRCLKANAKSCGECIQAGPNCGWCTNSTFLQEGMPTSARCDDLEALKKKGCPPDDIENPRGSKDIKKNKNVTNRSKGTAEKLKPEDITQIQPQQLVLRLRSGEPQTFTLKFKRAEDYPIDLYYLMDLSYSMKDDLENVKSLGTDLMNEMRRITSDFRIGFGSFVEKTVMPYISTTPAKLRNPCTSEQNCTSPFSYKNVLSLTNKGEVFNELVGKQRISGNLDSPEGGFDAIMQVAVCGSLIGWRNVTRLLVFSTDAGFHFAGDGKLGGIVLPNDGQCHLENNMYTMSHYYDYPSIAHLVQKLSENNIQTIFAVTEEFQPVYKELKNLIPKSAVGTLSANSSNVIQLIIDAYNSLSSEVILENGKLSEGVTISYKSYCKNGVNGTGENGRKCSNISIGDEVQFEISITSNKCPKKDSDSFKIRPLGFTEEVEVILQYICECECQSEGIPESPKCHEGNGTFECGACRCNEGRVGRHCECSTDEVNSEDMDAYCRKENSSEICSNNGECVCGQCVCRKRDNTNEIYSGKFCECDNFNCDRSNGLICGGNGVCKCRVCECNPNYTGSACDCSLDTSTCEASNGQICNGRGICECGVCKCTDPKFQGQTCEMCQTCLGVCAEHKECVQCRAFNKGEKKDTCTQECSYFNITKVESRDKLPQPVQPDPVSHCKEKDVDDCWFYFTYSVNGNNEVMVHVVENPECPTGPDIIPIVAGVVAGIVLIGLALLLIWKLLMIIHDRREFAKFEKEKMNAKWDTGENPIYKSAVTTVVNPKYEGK
Protocol: The CS-1 derived peptide, CLHPGEILDVPST, and the scrambled control peptide, CLHGPIELVSDPT, were synthesized on a Beckman 990 synthesizer using t-Boc methodology. The peptides were immobilized onto microtiter plates using the heterobifunctional crosslinker 3-(2-pyridyldithio)propionic acid N-hydroxysuccinimide ester (SPDP) as reported by Pierschbacher et al., Proc. Natl. Acad. USA, 80:1224-1227 (1983). Microtiter plates were coated with 20 µg/ml HSA for 2 hr. at room temperature, washed once with PBS and derivatized with 10 µg/ml SPDP for 1 hr. After washing, 100 µl of a 100 µg/ml cysteine containing peptide solution which had been recently dissolved was added to the wells and allowed to crosslink to the plates overnight at 4 °C. Unbound peptide was removed from plates by washing with PBS. To block non-reacted sites, the plates are coated with 100 µl of a 2.5 mg/ml BSA solution in PBS for 1 hr. at 37 °C. 100 µl of Jurkat cells (2.5 x 10^6 cells/ml) in DMEM plus BSA (2.5 mg/ml) was mixed with an appropriate concentration of the compound to be tested and the mixture was added to peptide coated dishes and incubated for 1 hr. at 37 °C. Generally 100, 20, 5 and 1.25 µM concentrations of the compound were tested.
Following this incubation the plates were washed once with PBS and the attached cells were fixed with 3% paraformaldehyde in PBS and stained with 0.5% toluidine blue in 3.7% formaldehyde. The cells were stained overnight at room temperature and the optical density at 590 nm of toluidine blue stained cells was determined using a vertical pathway spectrophotometer to quantitate attachment (VMAX Kinetic Microplate Reader, Molecular Devices, Menlo Park, CA). This procedure is a modification of a previously published method (Cardarelli et al, J. Biol. Chem., 269:18668-18673 (1994) and Cardarelli et al, Proc. Natl. Acad. Sci. USA, 83:2647-2651 (1986)).

T1 sequence (P13612 34-1032): as the sequence (P13612 34-1032) above
T1 sequence (P05556 21-798): as the sequence (P05556 21-798) above

| SMILES | IC50 (α4β1 integrin) | IC50 (α4β1) |
| --- | --- | --- |
| CC(=O)[C@H]1C[C@@H](CC(=O)N[C@@H](Cc2ccc(NC(=O)c3c(Cl)cccc3Cl)cc2)C(=O)O)C1(C)C [Example 88, (1S-cis)-N-[(3-Acetyl-2,2-dimethylcyclobutyl)acetyl]-4-[(2,6-dichlorobenzoyl)amino]-L-phenylalanine] | 5000 to 10000 nM | 500 to 1000 nM |
| O=C(O)c1cncc(C(=O)Nc2cccc(C(=O)N[C@@H](Cc3ccc(NC(=O)c4c(Cl)cccc4Cl)cc3)C(=O)O)c2)c1 [Example 44] | 5000 to 10000 nM | 80 to 500 nM |
| O=C(/C=C/c1ccc(C(=O)O)cc1)N[C@@H](Cc1ccc(NC(=O)c2c(Cl)cccc2Cl)cc1)C(=O)O [Example 123] | 5000 to 10000 nM | 500 to 1000 nM |
| CC(=O)[C@@H]1C[C@H](C(=O)N[C@@H](Cc2ccc(NC(=O)c3cccnc3Cl)cc2)C(=O)O)C1(C)C [Example 105, (1S-cis)-N-[(3-Acetyl-2,2-dimethylcyclobutyl)carbonyl]-4-[[(2-chloro-3-pyridinyl)carbonyl]amino]-L-phenylalanine] | 800 to 5000 nM | 80 to 500 nM |
| CC(=O)[C@@H]1C[C@H](CC(=O)N[C@@H](Cc2ccc(NC(=O)c3c(Cl)cccc3Cl)cc2)C(=O)O)C1(C)C [Example 91, (1R-cis)-N-[(3-Acetyl-2,2-dimethylcyclobutyl)acetyl]-4-[(2,6-dichlorobenzoyl)amino]-L-phenylalanine] | 800 to 5000 nM | 500 to 1000 nM |
| O=C(O)/C=C/c1ccc(C(=O)N[C@@H](Cc2ccc(NC(=O)c3c(Cl)cccc3Cl)cc2)C(=O)O)cc1 [Example 125, N-[[4-[(E)-3-Hydroxy-3-oxo-1-propenyl]phenyl]carbonyl]-4-[(2,6-dichlorobenzoyl)amino] -L-phenylalanine] | 800 to 5000 nM | ≤ 80 nM |
| O=C(NC1(C(=O)N[C@@H](Cc2ccc(NC(=O)c3c(Cl)cccc3Cl)cc2)C(=O)O)CC2CCC1C2)c1cc(O)c2ccccc2n1 (some centres unmarked) [Example 73] | 800 to 5000 nM | 500 to 1000 nM |
| O=C(NC1(C(=O)N[C@@H](Cc2ccc(NC(=O)c3c(Cl)cccc3Cl)cc2)C(=O)O)CC2CCC1C2)c1ccc([N+](=O)[O-])o1 (some centres unmarked) [Example 76] | 800 to 5000 nM | 80 to 500 nM |
| CC(=O)[C@H]1C[C@H](C(=O)N[C@@H](Cc2ccc(NC(=O)c3cccnc3Cl)cc2)C(=O)O)C1(C)C [Example 104, (1S-trans)-N-[(3-Acetyl-2,2-dimethylcyclobutyl)carbonyl]-4-[[(2-chloro-3-pyridinyl)carbonyl]amino]-L-phenylalanine] | 800 to 5000 nM | 500 to 1000 nM |
| O=C(O)c1cccc(C(=O)NC2(C(=O)N[C@@H](Cc3ccc(NC(=O)c4c(Cl)cccc4Cl)cc3)C(=O)O)CCCCC2)n1 [Example 62] | 800 to 5000 nM | 80 to 500 nM |
| O=C(O)CCC(=O)NC1(C(=O)N[C@@H](Cc2ccc(NC(=O)c3c(Cl)cccc3Cl)cc2)C(=O)O)CCCCC1 [Example 46] | 800 to 5000 nM | 80 to 500 nM |
| CC1(C)[C@@H](CC(=O)N[C@@H](Cc2ccc(NC(=O)c3c(Cl)cccc3Cl)cc2)C(=O)O)C[C@H]1C(=O)O [Example 93, (1R-cis)-N-[(3-Carboxy-2,2-dimethylcyclobutyl)acetyl]-4-[(2,6-dichlorobenzoyl)amino]-L-phenylalanine] | 800 to 5000 nM | 80 to 500 nM |

Further lines, results first:

| IC50 (α4β1 integrin) | IC50 (α4β1) | SMILES |
| --- | --- | --- |
| 800 to 5000 nM | 80 to 500 nM | O=C(Nc1ccc(C[C@H](NC(=O)[C@H]2CC[C@@H](C(=O)O)C2)C(=O)O)cc1)c1c(Cl)cccc1Cl (mixture of isomers) [Example 112, N-[cis-(3-Carboxycyclopentyl)carbonyl]-4-[(2,6-dichlorobenzoyl)amino]-L-phenylalanine] |
| ≤ 800 nM | 500 to 1000 nM | CC(C)(Sc1ccccc1C(=O)O)C(=O)N[C@@H](Cc1ccc(NC(=O)c2c(Cl)cccc2Cl)cc1)C(=O)O [Example 25] |
| 800 to 5000 nM | 80 to 500 nM | CC(=O)[C@H]1C[C@H](C(=O)N[C@@H](Cc2ccc(NC(=O)c3ccc(Cl)nc3Cl)cc2)C(=O)O)C1(C)C [Example 106, (1S-trans)-N-[(3-Acetyl-2,2-dimethylcyclobutyl)carbonyl]-4-[[(2,6-dichloro-3-pyridinyl)carbonyl]amino]-L-phenylalanine] |
| 800 to 5000 nM | 80 to 500 nM | O=C(NC1(C(=O)N[C@@H](Cc2ccc(NC(=O)c3c(Cl)cccc3Cl)cc2)C(=O)O)CCCCC1)c1cc(O)c2ccccc2n1 [Example 64] |
| 800 to 5000 nM | 500 to 1000 nM | O=C(Nc1ccc(C[C@H](NC(=O)[C@@H]2CCC[C@H]2C(=O)O)C(=O)O)cc1)c1c(Cl)cccc1Cl [Example 9] |
| 800 to 5000 nM | 80 to 500 nM | O=C(NC1CCCCC1C(=O)NC(Cc1ccc(NC(=O)c2c(Cl)cccc2Cl)cc1)C(=O)O)c1cccnc1 (centres unmarked) [Example 79] |
| ≤ 800 nM | 80 to 500 nM | O=C(Nc1ccc(C[C@H](NC(=O)C2(NC(=O)C3CCOC3)CCCCC2)C(=O)O)cc1)c1c(Cl)cccc1Cl (some centres unmarked) [Example 69] |
| 800 to 5000 nM | 80 to 500 nM | O=C(Nc1ccc(C[C@H](NC(=O)N2CCCC(C(=O)O)C2)C(=O)O)cc1)c1c(Cl)cccc1Cl (stereo partly drawn) [Example 115, 1-[[((1S)-1-carboxy-2-[4-[(2,6-dichlorobenzoyl)amino]phenyl]ethyl)amino]carbonyl]-3-piperidinecarboxylic acid] |
| ≤ 800 nM | 80 to 500 nM | O=C(Nc1ccc(C[C@H](NC(=O)C2(NC(=O)C3NC(C(=O)O)CS3)CCCCC2)C(=O)O)cc1)c1c(Cl)cccc1Cl (some centres unmarked) [Example 66] |
| ≤ 800 nM | ≤ 80 nM | CC(=O)[C@@H]1C[C@H](C(=O)N[C@@H](Cc2ccc(NC(=O)c3c(Cl)cccc3Cl)cc2)C(=O)O)C1(C)C [Example 97, (1S-cis)-N-[(3-Acetyl-2,2-dimethylcyclobutyl)carbonyl]-4-[(2,6-dichlorobenzoyl)amino)-L-phenylalanine] |
| ≤ 800 nM | 80 to 500 nM | O=C(NC1(C(=O)N[C@@H](Cc2ccc(NC(=O)c3c(Cl)cccc3Cl)cc2)C(=O)O)CCCCC1)c1ccc([N+](=O)[O-])o1 [Example 67] |
| ≤ 800 nM | ≤ 80 nM | O=C(NC1CCCCC1C(=O)NC(Cc1ccc(NC(=O)c2c(Cl)cccc2Cl)cc1)C(=O)O)c1cc(C(=O)O)[nH]n1 (centres unmarked) [Example 83] |
| ≤ 800 nM | ≤ 80 nM | CC(=O)CCC(=O)NC1(C(=O)N[C@@H](Cc2ccc(NC(=O)c3c(Cl)cccc3Cl)cc2)C(=O)O)CCCCC1 [Example 53] |
| ≤ 800 nM | 80 to 500 nM | O=C(Nc1ccc(C[C@H](NC(=O)C2(NC(=O)C3CCCO3)CCCCC2)C(=O)O)cc1)c1c(Cl)cccc1Cl (some centres unmarked) [Example 68] |
| ≤ 800 nM | 80 to 500 nM | O=C(NC1(C(=O)N[C@@H](Cc2ccc(NC(=O)c3c(Cl)cccc3Cl)cc2)C(=O)O)CCCCC1)c1cccnc1 [Example 61] |
| ≤ 800 nM | ≤ 80 nM | O=C(NC1CCCCC1C(=O)NC(Cc1ccc(NC(=O)c2c(Cl)cccc2Cl)cc1)C(=O)O)c1ccc([N+](=O)[O-])o1 (centres unmarked) [Example 85] |

From patent publication EP1144365B1 (TANABE SEIYAKU CO., LTD., priority 1998, dated 2000)
